According to US20150342954A1, “2-BENZYL, 3-(PYRIMIDIN-2-YL) SUBSTITUTED PYRAZOLES USEFUL AS SGC STIMULATORS” (IRONWOOD PHARMACEUTICALS, INC., priority 2011, published 2015):
Like-named read-outs stand apart in the source and are kept apart here.

Assays:
[1] = biological target: T1, Human soluble guanylate cyclase enzyme (hsGC) (Homo sapiens, UniProt Q02108+Q02153); assay: Purified human sGC enzyme synergy assay in the presence of 1 μM sodium nitroprusside (SNP); type: biochemical; details: compound at 30 μM, presence of 1 μM SNP
T1 construct: purchased Enzo Inc. ALX-201-177
T1 sequence (Q02153 1-619): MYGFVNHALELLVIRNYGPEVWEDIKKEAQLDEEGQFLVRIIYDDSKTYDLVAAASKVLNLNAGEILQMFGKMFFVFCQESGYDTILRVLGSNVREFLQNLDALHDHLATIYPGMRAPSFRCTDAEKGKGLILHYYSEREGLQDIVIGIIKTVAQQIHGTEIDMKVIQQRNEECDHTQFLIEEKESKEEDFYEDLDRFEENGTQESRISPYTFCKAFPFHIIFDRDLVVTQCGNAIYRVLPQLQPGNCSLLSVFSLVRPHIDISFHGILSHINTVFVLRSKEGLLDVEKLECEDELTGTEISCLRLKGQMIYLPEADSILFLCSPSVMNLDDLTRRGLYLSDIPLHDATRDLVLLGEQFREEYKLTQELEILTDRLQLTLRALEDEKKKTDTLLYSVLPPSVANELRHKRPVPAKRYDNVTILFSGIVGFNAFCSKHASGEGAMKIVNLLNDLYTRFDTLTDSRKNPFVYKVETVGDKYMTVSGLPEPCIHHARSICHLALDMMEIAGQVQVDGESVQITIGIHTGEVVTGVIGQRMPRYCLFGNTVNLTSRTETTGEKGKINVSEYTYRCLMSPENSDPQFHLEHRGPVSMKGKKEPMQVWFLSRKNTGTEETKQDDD
T1 sequence (Q02108 1-690): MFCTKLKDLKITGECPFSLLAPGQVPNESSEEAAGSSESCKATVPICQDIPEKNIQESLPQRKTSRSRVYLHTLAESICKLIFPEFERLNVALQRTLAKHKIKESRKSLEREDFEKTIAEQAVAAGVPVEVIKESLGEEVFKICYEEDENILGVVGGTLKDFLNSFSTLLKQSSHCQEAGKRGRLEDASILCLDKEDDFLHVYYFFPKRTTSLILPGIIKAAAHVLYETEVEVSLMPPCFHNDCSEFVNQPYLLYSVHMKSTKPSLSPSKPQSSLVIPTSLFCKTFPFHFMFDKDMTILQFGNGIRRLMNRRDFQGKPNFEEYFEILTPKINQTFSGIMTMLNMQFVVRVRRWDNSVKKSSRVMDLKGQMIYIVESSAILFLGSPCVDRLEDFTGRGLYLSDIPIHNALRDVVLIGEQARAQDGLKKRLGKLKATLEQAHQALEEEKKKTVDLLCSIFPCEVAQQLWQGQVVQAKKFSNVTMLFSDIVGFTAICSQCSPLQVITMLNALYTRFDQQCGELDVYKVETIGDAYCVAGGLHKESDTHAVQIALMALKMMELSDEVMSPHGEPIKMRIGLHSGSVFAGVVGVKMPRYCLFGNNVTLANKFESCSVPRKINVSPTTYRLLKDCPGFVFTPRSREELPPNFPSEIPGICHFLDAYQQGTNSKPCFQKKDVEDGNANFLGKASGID
In short: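 Purified hsGC (5 ng) incubated 30 min at 37 °C with compound (10 or 30 μM final) in Tris pH 8.0, 300 μM GTP, 1 mM IBMX, 2 mM MgCl2, with or without 1 μM SNP; stopped with cold methanol. cGMP quantified against standard curve; specific activity expressed as fold-change over DMSO control.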

[2] = biological target: T2, soluble guanylate cyclase (sGC) (Homo sapiens, UniProt Q02108+Q02153); assay: sGC-HEK-cGMP assay (run with SNP incubation); type: cell-based; details: for Emax: 10 μM SNP, 100% = 30 μM BAY 41-2272 with 10 μM SNP, read-out: HEK assay Emax-unconstrained (Percent); for HEK MEC-10: concentration that would elicit 10% of the Emax in the presence of 10 μM SNP; for EC50: in the presence of 10 μM SNP
T2 construct: endogenously expressing soluble guanylate cyclase (sGC); endogenous in cells; host or cells: HEK293
T2 sequence (Q02153 1-619): T1 sequence (Q02153 1-619)
T2 sequence (Q02108 1-690): T1 sequence (Q02108 1-690)
In short: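 HEK293 cells with endogenous sGC were pre-treated 15 min at 37 °C with 0.5 mM IBMX, then exposed to test compound plus sodium nitroprusside for 10 min at 37 °C. Cells were lysed in 0.1 M HCl (4 °C, 30 min), and cGMP was quantified by LC/MS against a standard curve. EC50 values came from concentration-response curves.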

[3] = biological target: T1, Human soluble guanylate cyclase enzyme (hsGC); assay: Purified human sGC enzyme activity assay (without SNP); type: biochemical; details: compound at 30 μM, absence of SNP, fold over DMSO control
In short: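 Purified human sGC (5 ng) in 0.1 M Tris pH 8.0, 2 mM DTT, 2 mM MgCl2, 300 μM GTP, 1 mM IBMX, with compound at 10 or 30 μM final, 30 min at 37° C.; methanol-stopped. cGMP quantified against a standard curve; specific activity expressed as fold-change over DMSO control.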

[4] = Table 3B, top of concentration-response curve not fitted to 100%
[5] = Table 3E, read-out: HEK assay EC50
[6] = top of concentration-response curve not fitted to 100%, Table 3E, read-out: HEK assay EC50-unconstrained
[7] = Table 3C, top of concentration-response curve not fitted to 100%
[8] = Table 3F, read-out: HEK assay EC50
[9] = top of concentration-response curve not fitted to 100%, Table 3F, read-out: HEK assay EC50-unconstrained

Row | SMILES | Enzyme Activity (increase at 30 μM with SNP) ([1]; Table 5B) | Emax [2, 4] [%] | HEK MEC-10 ([2]; Table 3E) | EC50 [2, 5] [µM] | EC50 [2, 6] [µM] | Enzyme Activity (increase at 30 μM without SNP) ([3]; Table 5B) | Enzyme Activity (increase at 30 μM with SNP) ([1]; Table 5C) | Emax [2, 7] [%] | HEK MEC-10 ([2]; Table 3F) | EC50 [2, 8] [µM] | EC50 [2, 9] [µM] | Enzyme Activity (increase at 30 μM without SNP) ([3]; Table 5C)
1 | CC(=O)Nc1cnc(-c2cc(-c3ccon3)n(Cc3cccc(F)c3F)n2)nc1N [Compound 80] | E (20 to 30 fold increase) | 40 to 60 | C (0.1 to <1 μM) | 40 to 60 | 0.01 to 0.5 | D (10 or <20 fold increase) |  |  |  |  |  | 
2 | O=c1ccnc(-c2cc(-c3ccon3)n(Cc3cccc(Cl)c3F)n2)[nH]1 [Compound 81] | D (10 or <20 fold increase) | 40 to 60 | C (0.1 to <1 μM) | 40 to 60 | 1 to 5 | C (5 to <10 fold increase) |  |  |  |  |  | 
3 | Oc1ccnc(-c2cc(-c3ccon3)n(Cc3cccc(F)c3F)n2)n1 [Compound 84] | D (10 or <20 fold increase) | 60 to 80 | B (0.01 to <0.1 μM) | 60 to 100 | 1 to 5 | C (5 to <10 fold increase) |  |  |  |  |  | 
4 | O=c1[nH]c(-c2cc(-c3ccon3)n(Cc3ccccc3F)n2)nc(F)c1C(F)(F)F [Compound 85, 6-fluoro-2-(1-(2-fluorobenzyl)-5-(isoxazol-3-yl)-1H-pyrazol-3-yl)-5-(trifluoromethyl)pyrimidin-4(3H)-one] | E (20 to 30 fold increase) | 40 to 60 |  |  | 0.01 to 0.5 | C (5 to <10 fold increase) |  |  |  |  |  | 
5 | Cc1cccc(Cn2nc(-c3ncc(F)c(O)n3)cc2-c2ccon2)c1F [Compound 86] | D (10 or <20 fold increase) | 60 to 80 |  |  | 1 to 5 | C (5 to <10 fold increase) |  |  |  |  |  | 
6 | Oc1nc(-c2cc(-c3ccoc3)n(Cc3ccccc3F)n2)ncc1F [Compound 87] | E (20 to 30 fold increase) | 40 to 60 |  |  | 0.01 to 0.5 | D (10 or <20 fold increase) |  |  |  |  |  | 
7 | Nc1nc(-c2cc(-c3ccon3)n(Cc3cccc(F)c3F)n2)ncc1NC(=O)c1ccc(F)cc1 [Compound 88] | E (20 to 30 fold increase) | 80 to 100 |  |  | 1 to 5 | F (>30 fold increase) |  |  |  |  |  | 
8 | CC1(C)C(=O)Nc2nc(-c3cc(-c4ccon4)n(Cc4ccccc4F)n3)nc(N)c21 [Compound 99, 4-amino-2-(1-(2-fluorobenzyl)-5-(isoxazol-3-yl)-1H-pyrazol-3-yl)-5,5-dimethyl-5H-pyrrolo[2,3-d]pyrimidin-6(7H)-one] |  |  |  |  |  |  | D (10 or <20 fold increase) | 40 to 60 | B (0.01 to <0.1 μM) | < 20 | 0.01 to 0.5 | D (10 or <20 fold increase)
9 | CC1(C)C(=O)Nc2nc(-c3cc(-c4ccon4)n(Cc4ccccc4F)n3)ncc21 [Compound 100] |  |  |  |  |  |  | F (>30 fold increase) | 60 to 80 | C (0.1 to <1 μM) | < 20 | 0.5 to 1 | D (10 or <20 fold increase)

The remaining lines, values ahead:

Row | Enzyme Activity (increase at 30 μM with SNP) ([1]; Table 5B) | Emax [2, 4] [%] | HEK MEC-10 ([2]; Table 3E) | EC50 [2, 5] [µM] | EC50 [2, 6] [µM] | Enzyme Activity (increase at 30 μM without SNP) ([3]; Table 5B) | Enzyme Activity (increase at 30 μM with SNP) ([1]; Table 5C) | Emax [2, 7] [%] | HEK MEC-10 ([2]; Table 3F) | EC50 [2, 8] [µM] | EC50 [2, 9] [µM] | Enzyme Activity (increase at 30 μM without SNP) ([3]; Table 5C) | SMILES
10 |  |  |  |  |  |  | B (2 to <5 fold increase) | 40 to 60 | D (1 to <10 μM) | 40 to 60 | 10 to 50 | B (2 to <5 fold increase) | Cn1cnc2nc(-c3cc(-c4ccon4)n(Cc4ccccc4F)n3)ncc21 [Compound 109]
11 |  |  |  |  |  |  | D (10 or <20 fold increase) | 80 to 100 | C (0.1 to <1 μM) | < 20 | 1 to 5 | D (10 or <20 fold increase) | Fc1ccccc1Cn1nc(-c2ncc3[nH]cnc3n2)cc1-c1ccon1 [Compound 110]
12 |  |  |  |  |  |  | B (2 to <5 fold increase) | 60 to 80 | E (10 to 50 μM) | 60 to 100 | 10 to 50 | A (no increase to <2 fold increase) | Cn1[nH]c2nc(-c3cc(-c4ccon4)n(Cc4ccccc4F)n3)ncc2c1=O [Compound 112]
13 |  |  |  |  |  |  | D (10 or <20 fold increase) | 20 to 40 | C (0.1 to <1 μM) | 20 to 40 | 0.01 to 0.5 | C (5 to <10 fold increase) | Fc1ccccc1Cn1nc(-c2ncc3cn[nH]c3n2)cc1-c1ccon1 [Compound 113]
14 |  |  |  |  |  |  | E (20 to 30 fold increase) | 60 to 80 | A (0.001 to <0.01 μM) | < 20 | 0.01 to 0.5 | D (10 or <20 fold increase) | CC(=O)Nc1n[nH]c2nc(-c3cc(-c4ccon4)n(Cc4ccccc4F)n3)ncc12 [Compound 114]
15 |  |  |  |  |  |  | E (20 to 30 fold increase) | 80 to 100 | B (0.01 to <0.1 μM) | < 20 | 0.5 to 1 | C (5 to <10 fold increase) | NC1=NNC2NC(c3cc(-c4ccon4)n(Cc4ccccc4F)n3)=NC=C12 (stereo not shown) [Compound 118]
